Measurements as given in publication PMC7618454, “Interleukin-1 receptor-associated kinase 4 (IRAK4) is a critical regulator of inflammatory signalling through toll-like receptors 4 and 7/8 in murine and human lungs” (British journal of pharmacology, 2024).
pIC50: −log10 of the molar value.

Assays:
[1] = target: T1, interleukin-1 receptor-associated kinase 4 (IRAK4) (Homo sapiens, UniProt Q9NWZ3); assay: IMAP fluorescence polarization kinase assay, […] ATP; type: biochemical
T1 construct: kinase domain, aa 153–460, N-terminal His6-tagged
T1 sequence (Q9NWZ3 153-460): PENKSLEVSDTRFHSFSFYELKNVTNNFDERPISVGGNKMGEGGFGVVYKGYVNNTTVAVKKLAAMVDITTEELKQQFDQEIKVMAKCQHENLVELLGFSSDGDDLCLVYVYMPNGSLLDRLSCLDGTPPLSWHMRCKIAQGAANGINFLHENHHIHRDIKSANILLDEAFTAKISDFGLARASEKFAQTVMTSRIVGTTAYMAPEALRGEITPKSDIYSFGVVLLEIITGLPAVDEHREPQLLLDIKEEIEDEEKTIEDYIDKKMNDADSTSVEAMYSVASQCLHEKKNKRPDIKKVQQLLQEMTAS

[2] = target: T2, interleukin-1 receptor-associated kinase 4 (IRAK4) (Mus musculus, UniProt Q8R4K2); assay: IMAP fluorescence polarization kinase assay, […] ATP; type: biochemical
T2 construct: kinase domain, aa 153–459, N-terminal His6-tagged
T2 sequence (Q8R4K2 153-459): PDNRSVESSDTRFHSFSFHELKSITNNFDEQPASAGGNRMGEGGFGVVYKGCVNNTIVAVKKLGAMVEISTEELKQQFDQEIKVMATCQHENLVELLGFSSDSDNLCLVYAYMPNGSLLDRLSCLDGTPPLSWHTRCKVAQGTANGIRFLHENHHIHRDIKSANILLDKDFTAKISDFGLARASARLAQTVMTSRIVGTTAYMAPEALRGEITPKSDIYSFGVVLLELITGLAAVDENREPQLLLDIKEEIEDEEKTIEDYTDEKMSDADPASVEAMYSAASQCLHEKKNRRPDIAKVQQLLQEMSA

pIC50 [1]: ~8.70
pIC50 [2]: ~8.70
Substance: BI1543673
